Test results published in patent publication US20250288573A1 (H. LEE MOFFITT CANCER CENTER AND RESEARCH INSTITUTE, INC., priority 2018, published 2025).
Like-named read-outs stand apart in the source and are kept apart here.

Key:
CRBN = biological target: T1, CRBN (Homo sapiens, UniProt Q96SW2); experiment: Western blot for expression of CRBN relative to vinculin in human T cells (CRBN degradation); type: cell-based; details: read-out: Relative Density of CRBN (% of DMSO)
T1 construct: endogenous in cells; host or cells: primary human T cells / CD8+ T cells from peripheral blood
Description: Bortez=bortezomib; MG132=proteasome inhibitor; MLN4924=NEDD8 inhibitor.
This assay is a standard Western blot assay for expression of CRBN relative to vinculin.
[…] 0.1 percent DMSO was used as a vehicle control.

cereblon (CRBN) [1] = biological target: cereblon (CRBN) (Homo sapiens, UniProt Q96SW2); experiment: Kd and % inhibition from FI; type: binding; details: for inhibition at 200 µM: read-out: % inhibition @ 200 uM from *FI
cereblon = biological target: T2, cereblon (Mus musculus, UniProt Q8C7D2); experiment: Western blot of cereblon in splenic T cells / splenocytes of mice treated orally with a single dose; type: in vivo; details: single oral dose of 75 mg/kg
T2 construct: from tissue; host or cells: spleen: purified splenic T cells and total splenocytes of treated mice
T2 sequence (Q8C7D2 1-445): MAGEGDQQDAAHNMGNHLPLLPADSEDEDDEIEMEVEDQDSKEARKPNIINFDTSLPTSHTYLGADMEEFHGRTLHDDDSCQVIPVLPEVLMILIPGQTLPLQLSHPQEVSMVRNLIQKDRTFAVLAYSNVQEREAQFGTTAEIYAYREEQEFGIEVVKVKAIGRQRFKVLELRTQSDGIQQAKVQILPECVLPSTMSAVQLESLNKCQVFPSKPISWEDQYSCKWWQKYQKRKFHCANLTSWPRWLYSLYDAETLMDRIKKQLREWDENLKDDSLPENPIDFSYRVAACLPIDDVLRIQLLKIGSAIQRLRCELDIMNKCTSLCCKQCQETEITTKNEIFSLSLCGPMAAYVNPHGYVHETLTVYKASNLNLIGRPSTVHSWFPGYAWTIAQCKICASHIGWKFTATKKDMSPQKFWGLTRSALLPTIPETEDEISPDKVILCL
Procedure: FIG. 24 is a graph of results from Western blots from purified splenic T cells of mice treated orally with a single dose of 75 mg/kg SM2-145. Three mice were obtained from each time point (1, 6, 12, and 24 hrs) after treatment.
FIG. 25 contains a Western blot analysis of purified T cells from mice treated orally with a single dose of 75 mg/kg EC2-035 and EC2-134.

cereblon (CRBN) [2] = biological target: T3, cereblon (CRBN) (Mus musculus, UniProt Q8C7D2); experiment: Western blot of cereblon (CRBN) levels in mouse CD8+ T cells; type: cell-based; details: 24 hours of treatment
T3 construct: endogenous in cells; host or cells: mouse CD8+ T cells
T3 sequence (Q8C7D2 1-445): T2 sequence (Q8C7D2 1-445)

[3] = 24 h, 10nM, human T cells, 24 hours
[4] = FI, read-out: Kd (FI) (converted)
[5] = cell does not state FI or ITC, read-out: Kd (A) FI/ITC

T1 sequence (Q96SW2 whole entry): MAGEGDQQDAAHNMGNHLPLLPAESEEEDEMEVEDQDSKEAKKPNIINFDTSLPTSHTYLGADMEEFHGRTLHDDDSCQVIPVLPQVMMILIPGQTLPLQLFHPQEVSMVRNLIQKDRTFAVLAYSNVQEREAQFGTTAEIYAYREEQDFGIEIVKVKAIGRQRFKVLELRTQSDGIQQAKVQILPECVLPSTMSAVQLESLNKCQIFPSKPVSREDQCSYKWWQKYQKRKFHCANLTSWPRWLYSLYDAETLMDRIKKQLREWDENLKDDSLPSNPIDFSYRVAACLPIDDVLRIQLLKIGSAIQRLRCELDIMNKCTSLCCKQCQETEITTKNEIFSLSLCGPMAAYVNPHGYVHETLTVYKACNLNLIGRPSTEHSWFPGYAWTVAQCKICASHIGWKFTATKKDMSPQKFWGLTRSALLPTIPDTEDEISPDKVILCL
Sequence of cereblon (CRBN) (Homo sapiens, UniProt Q96SW2) (Q96SW2 whole entry, species assumed): as the sequence (Q96SW2 whole entry) above

| SMILES | remaining activity at 10 µM (CRBN) | remaining activity at 0.01 µM (CRBN; [3]) | Kd (cereblon (CRBN) [1]; [4]) | inhibition at 200 µM (cereblon (CRBN) [1]) | also measured |
| --- | --- | --- | --- | --- | --- |
| O=C1CCC(N2Cc3c(NC(=O)CCCCC(=O)Nc4cccc5c4CN(C4CCC(=O)NC4=O)C5=O)cccc3C2=O)C(=O)N1 (stereo not drawn) [EC1-149, N^1,N^6-Bis(2-(2,6-dioxopiperidin-3-yl)-1-oxoisoindolin-4-yl)adipamide] | 1.74% | 76.3% | 22.8 ± 0.55 µM | 87.3 ± 2% | – |
| O=C(COc1cccc2c1C(=O)N(C1CCC(=O)NC1=O)C2=O)NCCCCNC(=O)COc1cccc2c1C(=O)N(C1CCC(=O)NC1=O)C2=O (stereo not drawn) [SY2-060, N,N′-(Butane-1,4-diyl)bis(2-((2-(2,6-dioxopiperidin-3-yl)-1,3-dioxoisoindolin-4-yl)oxy)acetamide)] | – | – | – | 1.52 ± 1.91% | remaining activity at 0.01 µM (CRBN; 24 h): 104% |
| O=C1CCC(N2Cc3c(NC(=O)CCCCCCCC(=O)Nc4cccc5c4CN(C4CCC(=O)NC4=O)C5=O)cccc3C2=O)C(=O)N1 (stereo not drawn) [EC1-151, N^1,N^9-Bis(2-(2,6-dioxopiperidin-3-yl)-1-oxoisoindolin-4-yl)nonanediamide] | 32% | 137% | 14.2 ± 3.16 µM | 46.7 ± 9% | – |
| O=C1CCC(N2C(=O)c3cccc(NC(=O)CCCCC(=O)Nc4cccc5c4C(=O)N(C4CCC(=O)NC4=O)C5=O)c3C2=O)C(=O)N1 (stereo not drawn) [EC1-120, N^1,N^6-bis(2-(2,6-Dioxopiperidin-3-yl)-1,3-dioxoisoindolin-4-yl)adipamide] | 16.8% | 95.3% | – | 23.2 ± 20% | – |
| O=C1CCC(N2Cc3c(C#CCOCCOCC#Cc4cccc5c4CN(C4CCC(=O)NC4=O)C5=O)cccc3C2=O)C(=O)N1 (stereo not drawn) [SY4-065] | 136% | 1.75% | – | – | Kd (A) FI/ITC (cereblon (CRBN) [1]; cell does not state FI or ITC): n.b. |
| O=C1CCC(N2C(=O)c3cccc(NC(=O)CCCCCCC(=O)Nc4cccc5c4C(=O)N(C4CCC(=O)NC4=O)C5=O)c3C2=O)C(=O)N1 (stereo not drawn) | 11.7% | 44.2% | – | – | % inhibition @ 200 uM from *FI (cereblon (CRBN) [1]): n.b. |
| O=C1CC[C@H](N2Cc3c(C#CCOCCOCC#Cc4cccc5c4CN([C@H]4CCC(=O)NC4=O)C5=O)cccc3C2=O)C(=O)N1 [XS01-008B2, (3S,3'S)-3,3′-(((Ethane-1,2-diylbis(oxy))bis(prop-1-yne-3,1-diyl))bis(1-oxoisoindoline-4,2-diyl))bis(piperidine-2,6-dione)] | – | 11.8% | 2.53 ± 1.53 µM | – | – |
| O=C1CCC(N2Cc3c(CCCCCCCCCCc4cccc5c4CN(C4CCC(=O)NC4=O)C5=O)cccc3C2=O)C(=O)N1 (stereo not drawn) [EC2-093, 3,3′-(Decane-1,10-diylbis(1-oxoisoindoline-4,2-diyl))bis(piperidine-2,6-dione)] | 13.3% | – | – | – | Kd (cereblon (CRBN) [1]; [5]): 35.5 ± 47.9 µM |
| O=C1CCC(NC(=O)CCCCCCCCC(=O)NC2CCC(=O)NC2=O)C(=O)N1 (stereo not drawn) [XS01-039, N^1,N^10-Bis(2,6-dioxopiperidin-3-yl)decanediamide] | 0.98% | 61.3% | – | – | remaining activity at 0.01 µM (CRBN; 10nM, B2): 92.9%; remaining activity at 10 µM (CRBN; B2): 13.1%; Kd (cereblon (CRBN) [1]; [5]): 161 ± 19.3 µM |
| O=C1CCC(N2C(=O)c3cccc(NC(=O)CCCC(=O)Nc4cccc5c4C(=O)N(C4CCC(=O)NC4=O)C5=O)c3C2=O)C(=O)N1 (stereo not drawn) [EC1-117, N^1,N^5-bis(2-(2,6-Dioxopiperidin-3-yl)-1,3-dioxoisoindolin-4-yl)glutaramide] | 19.8% | 114% | – | 47.9 ± 11% | – |
| O=C1CCC(N2Cc3c(CCCOCCOCCOCCOCCOCCCc4cccc5c4CN(C4CCC(=O)NC4=O)C5=O)cccc3C2=O)C(=O)N1 (stereo not drawn) [SM2-156, 3,3′-((4,7,10,13,16-Pentaoxanonadecane-1,19-diyl)bis(1-oxoisoindoline-4,2-diyl))bis(piperidine-2,6-dione)] | 33.4% | 56.8% | 11.2 ± 0.53 µM | 79.5 ± 2.29% | – |
| O=C1CCC(N2Cc3c(NCc4ccc(CNc5cccc6c5CN(C5CCC(=O)NC5=O)C6=O)cc4)cccc3C2=O)C(=O)N1 (stereo not drawn) [EC2-035, 3,3′-(((1,4-Phenylenebis(methylene))bis(azanediyl))bis(1-oxoisoindoline-4,2-diyl))bis(piperidine-2,6-dione)] | 99.7% | 2.32% | – | – | cereblon levels in purified splenic T cells (cereblon): sustained reduction in cereblon levels at 6, 9 and 12 hours |
| O=C(CCc1cccc2c1CN(C1CCC(=O)NC1=O)C2=O)NCCOCCNC(=O)CCc1cccc2c1CN(C1CCC(=O)NC1=O)C2=O (stereo not drawn) [SM3-010, N,N′-(Oxybis(ethane-2,1-diyl))bis(3-(2-(2,6-dioxopiperidin-3-yl)-1-oxoisoindolin-4-yl)propanamide)] | 86.9% | 119% | 14.3 ± 0.52 µM | 72.4 ± 0.84% | – |
| O=C1CCC(N2Cc3c(CCCOCCOCCOCCOCCCc4cccc5c4CN(C4CCC(=O)NC4=O)C5=O)cccc3C2=O)C(=O)N1 (stereo not drawn) [SM2-139, 3,3′-((4,7,10,13-Tetraoxahexadecane-1,16-diyl)bis(1-oxoisoindoline-4,2-diyl))bis(piperidine-2,6-dione)] | 19.4% | 44.3% | 9.38 ± 0.59 µM | 79.6 ± 3.13% | – |
| O=C1CCC(N2Cc3c(NC(=O)CCCC(=O)Nc4cccc5c4CN(C4CCC(=O)NC4=O)C5=O)cccc3C2=O)C(=O)N1 (stereo not drawn) [EC1-148, N^1,N^5-Bis(2-(2,6-dioxopiperidin-3-yl)-1-oxoisoindolin-4-yl)glutaramide] | 2.97% | 73.8% | 23.6 ± 2.55 µM | 83.6 ± 4% | – |
| O=C1CCC(N2Cc3c(NC(=O)CCCCCCCCC(=O)Nc4cccc5c4CN(C4CCC(=O)NC4=O)C5=O)cccc3C2=O)C(=O)N1 (stereo not drawn) [EC1-152, N^1,N^10-Bis(2-(2,6-dioxopiperidin-3-yl)-1-oxoisoindolin-4-yl)decanediamide] | 28.2% | 133% | 15.5 ± 2.26 µM | 47.9 ± 2% | – |
| COCCOCCCc1cccc2c1CN(C1CCC(=O)NC1=O)C2=O (stereo not drawn) [SM3-095, 3-(4-(3-(2-Methoxyethoxy)propyl)-1-oxoisoindolin-2-yl)piperidine-2,6-dione] | – | – | – | – | cereblon (CRBN) levels (Western blot) (cereblon (CRBN) [2]): not |
| O=C(COc1cccc2c1C(=O)N(C1CCC(=O)NC1=O)C2=O)NCCCOCCCNC(=O)COc1cccc2c1C(=O)N(C1CCC(=O)NC1=O)C2=O (stereo not drawn) [SM2-126] | 13.2% | 136% | 13.7 ± 0.7 µM | 88.9 ± 1.54% | – |
| O=C1CCC(N2C(=O)c3cccc(NC(=O)[C@H]4CC[C@H](C(=O)Nc5cccc6c5C(=O)N(C5CCC(=O)NC5=O)C6=O)CC4)c3C2=O)C(=O)N1 (stereo partly drawn) [EC1-135, (trans)-N^1,N^4-bis(2-(2,6-Dioxopiperidin-3-yl)-1,3-dioxoisoindolin-4-yl)cyclohexane-1,4-dicarboxamide] | 36.5% | 134% | – | – | % inhibition @ 200 uM from *FI (cereblon (CRBN) [1]): n.b. |
| O=C1CCC(N2Cc3c(NC(=O)CCCCCC(=O)Nc4cccc5c4CN(C4CCC(=O)NC4=O)C5=O)cccc3C2=O)C(=O)N1 (stereo not drawn) [EC1-141, N^1,N^7-Bis(2-(2,6-dioxopiperidin-3-yl)-1-oxoisoindolin-4-yl)heptanediamide] | 7.19% | 91.2% | 22.1 ± 1.47 µM | 71.6 ± 2% | – |
| O=C(/C=C/c1cccc2c1CN(C1CCC(=O)NC1=O)C2=O)NCCOCCOCCOCCNC(=O)/C=C/c1cccc2c1CN(C1CCC(=O)NC1=O)C2=O (stereo not drawn) [SM3-009, (2E,2′E)-N,N′-(((Oxybis(ethane-2,1-diyl))bis(oxy))bis(ethane-2,1-diyl))bis(3-(2-(2,6-dioxopiperidin-3-yl)-1-oxoisoindolin-4-yl)acrylamide)] | 59.1% | 108% | 8.21 ± 1.22 µM | 83.88 ± 0.28% | – |
| O=C1CCC(NC(=O)c2cccc(NC(=O)CCCC(=O)Nc3cccc(C(=O)NC4CCC(=O)NC4=O)c3)c2)C(=O)N1 (stereo not drawn) [XS01-074, N^1,N^5-Bis(3-((2,6-Dioxopiperidin-3-yl)carbamoyl)phenyl)glutaramide] | 25.9% | – | – | – | Kd (cereblon (CRBN) [1]; [5]): 187 ± 16.2 µM |
